Results reported in patent US6710048B2, “Pyrazine derivatives as modulators of tyrosine kinases” (Ortho-McNeil Pharmaceutical, Inc., priority 2000, dated 2004).

Assays:
[1] = test system: A375 human melanoma cells; experiment: In vivo inhibition of tumor growth (A375 in athymic mice); set-up: species or system mouse; details: A375 cells s.c. in male athymic mice, intraperitoneally once a day for 30 days, 50 mg/Kg and 5 mg/Kg (FIG. 1)
From the text: The in vivo effect of a compound on the growth of human tumor cells can be evaluated by implanting human tumor cells into the hindflank of athymic mice and administering test compound to the mice. Such assays are useful in identifying and confirming compounds that are useful for inhibiting angiogenesis or to identify compounds that can inhibit VEGF activity and therefor are useful for treating a variety of cancers or other diseases associated with abnormal or aberrant angiogenesis, such as those diseases discussed supra. Human tumor cells originating from a variety of different cancer types, such as A375 human melanoma cells, were implanted subcutaneously into the hindflank of male athymic mice (Charles River) and allowed to establish a sizeable tumor for 6-10 days as determined by caliper measurements. Test compound was then administered by injecting the compound formulated in an appropriate vehicle, here saline was used as the vehicle, intraperitoneally into the mice once a day for 30 days. The test compound can also be administered by other routes such as orally, sub cutaneously or by intravenous infusion. The size of the tumor in this study was measured every four days and the degree of inhibition was determined by comparing drug-treated animals to animals that were injected with vehicle only. […]

rat aortic ring = experiment: Rat aortic ring assay (vascular sprouting); assay type: cell-based; details: 192 h; rat aortic ring in fibrin gel, analyzed on day 8; read-out: Inhibition of Vascular Sprouting (IC50μM)
Protocol: The rat aortic ring assay is a rapid in vitro assay that measures new capillary growth in an environment that closely approximates the in vivo conditions of the extracellular matrix. The assay was performed as described (Nicosia, R F and Ottinetti, A. Growth of new microvessels in serum-free matrix culture of rat aorta. Lab Invest., 63: 115-122, 1990). Thoracic aortas were removed from 1 to 2-month old male Sprague-Dawley rats and transferred to a culture dish containing serum-free MCDB 131 medium (Clonetics). Extraneous tissue was removed and the aorta was sectioned into rings approximately 1 mm long and rinsed 8-10 times in serum-free medium. A solution of sterile 1.5% agarose (Type VI-A, Sigma, St. Louis, Mo.) was added to the wells of a 6-well plate. The wells were filled with clotting fibrinogen solution and an aortic ring was transferred into the well positioned with the lumen oriented horizontally in the center of the fibrin gel solution. The fibrinogen solution was prepared in MCDB 131 medium with bovine fibrinogen at 3 mg/ml. Clotting was initiated by adding 20 μl of a 50 NIH units/ml bovine thrombin solution and the fibrin gel generally formed within 30 seconds. The fibrinolytic inhibitor amino-n-caproic acid was added to the culture medium at 300 µg/ml (microgram per milliliter) for the first four days of the assay and at 50 μg/ml from day 5 to day 8. Once the fibrin gel solution solidified, 5 ml of serum-free MCDB 131 media containing 100 μg/ml penicillin, 100 μg/ml streptomycin and 0.25 μg/ml amphotericin B was added to each well. Explants were incubated at 37° C. with 5% CO2 for 8 days. Medium was replaced every 2-3 days and the assay was analyzed on day 8. Inhibition of vascular sprouting was measured by adding test compounds diluted in DMSO.

Compound: CN(C)CCNc1cncc(-c2cncc(Nc3cccc(Cl)c3)n2)c1 [Cmd 33, N′-[5-[6-[(3-chlorophenyl)amino]pyrazinyl]-3-pyridinyl]-N^2,N^2-dimethyl-1,2-ethanediamine]
- tumor growth delay (tumor size) [1]: delay of tumor size progression
- tumor growth delay (tumor size) ([1]; listed as compound 33): tumor growth delay
- IC50 (rat aortic ring): > 1 µM
